Reference: BigSolDB 2.1

O=S(=O)([O-])NC1CCCCC1.[Na+]
solubility (mole fraction) (in DMF, 283.15 K): 3.1e-05 | solubility (mole fraction) (in DMF, 288.14 K): 0.000121 | solubility (mole fraction) (in DMF, 293.17 K): 0.000214 | solubility (mole fraction) (in DMF, 298.15 K): 0.000364 | solubility (mole fraction) (in DMF, 303.13 K): 0.00051 | solubility (mole fraction) (in DMF, 308.15 K): 0.000724 | solubility (mole fraction) (in DMF, 313.14 K): 0.00095 | solubility (mole fraction) (in DMF, 318.13 K): 0.00119 | solubility (mole fraction) (in DMF, 323.17 K): 0.00141 | solubility (mole fraction) (in DMSO, 293.13 K): 0.000997 | solubility (mole fraction) (in DMSO, 298.15 K): 0.00226 | solubility (mole fraction) (in DMSO, 303.14 K): 0.00433 | solubility (mole fraction) (in DMSO, 308.15 K): 0.00792 | solubility (mole fraction) (in DMSO, 313.16 K): 0.0117 | solubility (mole fraction) (in DMSO, 318.15 K): 0.0154 | solubility (mole fraction) (in DMSO, 323.2 K): 0.0183 | solubility (mole fraction) (in DMSO, 328.15 K): 0.0198 | solubility (mole fraction) (in DMSO, 333.17 K): 0.0203 | solubility (mole fraction) (in acetic acid, 293.15 K): 0.0037 | solubility (mole fraction) (in acetic acid, 298.14 K): 0.00501 | solubility (mole fraction) (in acetic acid, 303.15 K): 0.00649 | solubility (mole fraction) (in acetic acid, 308.17 K): 0.00753 | solubility (mole fraction) (in acetic acid, 313.15 K): 0.00877 | solubility (mole fraction) (in acetic acid, 318.13 K): 0.0103 | solubility (mole fraction) (in acetic acid, 323.15 K): 0.0115 | solubility (mole fraction) (in acetic acid, 328.17 K): 0.0128 | solubility (mole fraction) (in acetic acid, 333.2 K): 0.0134 | solubility (mole fraction) (in formamide, 283.13 K): 0.0319 | solubility (mole fraction) (in formamide, 288.15 K): 0.0391 | solubility (mole fraction) (in formamide, 293.16 K): 0.0438 | solubility (mole fraction) (in formamide, 298.17 K): 0.0472 | solubility (mole fraction) (in formamide, 303.15 K): 0.0506 | solubility (mole fraction) (in formamide, 308.14 K): 0.0526 | solubility (mole fraction) (in formamide, 313.15 K): 0.0543 | solubility (mole fraction) (in formamide, 318.12 K): 0.0554 | solubility (mole fraction) (in formamide, 323.15 K): 0.0567 | solubility (mole fraction) (in formic acid, 283.13 K): 0.016 | solubility (mole fraction) (in formic acid, 288.13 K): 0.0179 | solubility (mole fraction) (in formic acid, 293.1 K): 0.0209 | solubility (mole fraction) (in formic acid, 299.12 K): 0.0239 | solubility (mole fraction) (in formic acid, 303.15 K): 0.0275 | solubility (mole fraction) (in formic acid, 308.17 K): 0.0319 | solubility (mole fraction) (in formic acid, 313.13 K): 0.037 | solubility (mole fraction) (in formic acid, 318.2 K): 0.0424 | solubility (mole fraction) (in formic acid, 323.15 K): 0.0487 | solubility (mole fraction) (in methanol, 283.1 K): 0.00271 | solubility (mole fraction) (in methanol, 288.15 K): 0.00295 | solubility (mole fraction) (in methanol, 293.24 K): 0.00314 | solubility (mole fraction) (in methanol, 298.1 K): 0.00331 | solubility (mole fraction) (in methanol, 303.15 K): 0.00352 | solubility (mole fraction) (in methanol, 308.2 K): 0.00376 | solubility (mole fraction) (in methanol, 313.19 K): 0.00405 | solubility (mole fraction) (in methanol, 318.2 K): 0.00436 | solubility (mole fraction) (in methanol, 323.15 K): 0.00467 | solubility (mole fraction) (in water, 283.13 K): 0.0152 | solubility (mole fraction) (in water, 288.17 K): 0.0166 | solubility (mole fraction) (in water, 293.15 K): 0.018 | solubility (mole fraction) (in water, 298.14 K): 0.02 | solubility (mole fraction) (in water, 303.17 K): 0.0233 | solubility (mole fraction) (in water, 308.13 K): 0.0284 | solubility (mole fraction) (in water, 313.15 K): 0.0363 | solubility (mole fraction) (in water, 318.14 K): 0.0461 | solubility (mole fraction) (in water, 323.15 K): 0.0512
